From paper PMC10378394 (Current Issues in Molecular Biology, 2023)

Legend:
PKCμ(h) = PKCμ(h) (Homo sapiens, UniProt Q15139); experiment: Eurofins kinase assay
MEK1(h) = MEK1(h) (Homo sapiens, UniProt Q02750); experiment: Eurofins kinase assay
PDGFRα(h) = PDGFRα(h) (Homo sapiens, UniProt P16234); experiment: Eurofins kinase assay
PKA(h) = PKA(h) (Homo sapiens, UniProt P17612); experiment: Eurofins kinase assay
CaMKIIβ(h) = CaMKIIβ(h) (Homo sapiens, UniProt Q13554); experiment: Eurofins kinase assay
MAPK2(h) = MAPK2(h) (Homo sapiens, UniProt P28482); experiment: Eurofins kinase assay
[1] = Tolerability in mouse xenograft experiments; format: in vivo
Procedure: Human-derived colorectal cancer cell lines, LS513, HCT-116, and HT29, were subcutaneously transplanted into 6-week-old female BALB/c nude mice to establish tumor models. Additionally, the mouse cancer cell line MC38 was subcutaneously transplanted into 6-week-old female and C57BL/6 mice to induce tumor formation. […]. The treatments were administered orally once daily for 2 weeks based on the growth rate observed in the vehicle group. Tumor volume was evaluated three times a week using the formula Tumor volume (TV) = (tumor short diameter ^2 × tumor long diameter)/2. The body weight of the mice was measured three times a week to assess potential toxicity in vivo. […]

PKCε(h) = PKCε(h) (Homo sapiens, UniProt Q02156); experiment: Eurofins kinase assay
MC38 tumor tissue = experiment: Immunofluorescence of tumor tissue; format: in vivo, mouse; details: MC38 tumors of treated mice
Procedure: Immunofluorescence staining was performed on tumor tissues. First, tumor tissue fixation was performed using 4% paraformaldehyde (Sigma-Aldrich, #HT5011). Next, heat-induced epitope retrieval was performed by incubating the tissue in 10 mM sodium citrate for 10 min. Subsequently, permeabilization was achieved by treating the tissue with 0.2% Triton X-100 (Sigma-Aldrich, #X100) for 5 min. To block nonspecific binding, the tissue was incubated in 5% skim milk for 40 min. Primary antibodies, including FOXP3 (eBioscience, San Diego, CA, USA, #11-5773-82), CD8 (eBioscience #53-0081-82), CD31 (Abcam, Cambridge, UK, #ab28364), F480 (Abcam #ab6640), CD163 (Abcam #ab182422), and CD206 (Abcam #ab64693), were used. The secondary antibodies used were FITC-conjugated AffiniPure F(ab’)2 fragment goat anti-rat IgG (H + L) (Jackson ImmunoResearch, West Grove, PA, USA, #112-096-003) and Cy3-conjugated AffiniPure F(ab’)2 fragment goat anti-rabbit IgG (H + L) (Jackson ImmunoResearch #111-166-003). The stained tissue was mounted using ProLong™ Gold Antifade Mountant with DAPI (Invitrogen, Waltham, MA, USA) #14-5773-82). Fluorescent images of the samples were captured using the Agilent BioTek Cytation 1 device. The images were analyzed using the Gen5 program (Version3, BioTek, Winooski, VT, USA) to extract relevant data and perform quantitative analysis.

CK2(h) = CK2(h) (Homo sapiens, UniProt P68400); experiment: Eurofins kinase assay
Chain of CK2(h) (P68400 whole entry): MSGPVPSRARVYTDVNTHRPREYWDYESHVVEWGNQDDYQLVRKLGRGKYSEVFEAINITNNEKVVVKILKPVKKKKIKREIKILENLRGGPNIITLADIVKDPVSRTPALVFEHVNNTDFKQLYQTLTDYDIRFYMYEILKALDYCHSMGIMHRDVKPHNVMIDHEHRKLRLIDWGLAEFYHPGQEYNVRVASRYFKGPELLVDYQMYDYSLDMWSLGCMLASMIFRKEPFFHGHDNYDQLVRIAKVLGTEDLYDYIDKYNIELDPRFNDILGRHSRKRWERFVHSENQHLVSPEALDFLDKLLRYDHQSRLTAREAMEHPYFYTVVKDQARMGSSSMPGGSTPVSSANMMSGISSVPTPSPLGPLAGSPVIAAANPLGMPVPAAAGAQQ
Chain of CK2(h) (P67870 whole entry partner): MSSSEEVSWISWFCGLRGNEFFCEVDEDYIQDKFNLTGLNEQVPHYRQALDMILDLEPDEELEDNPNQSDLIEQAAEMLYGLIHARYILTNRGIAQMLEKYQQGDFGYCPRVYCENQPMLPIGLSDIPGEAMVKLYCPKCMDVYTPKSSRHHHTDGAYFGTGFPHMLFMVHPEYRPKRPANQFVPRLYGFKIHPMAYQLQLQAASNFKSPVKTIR

Chain of MEK1(h) (Q02750 whole entry): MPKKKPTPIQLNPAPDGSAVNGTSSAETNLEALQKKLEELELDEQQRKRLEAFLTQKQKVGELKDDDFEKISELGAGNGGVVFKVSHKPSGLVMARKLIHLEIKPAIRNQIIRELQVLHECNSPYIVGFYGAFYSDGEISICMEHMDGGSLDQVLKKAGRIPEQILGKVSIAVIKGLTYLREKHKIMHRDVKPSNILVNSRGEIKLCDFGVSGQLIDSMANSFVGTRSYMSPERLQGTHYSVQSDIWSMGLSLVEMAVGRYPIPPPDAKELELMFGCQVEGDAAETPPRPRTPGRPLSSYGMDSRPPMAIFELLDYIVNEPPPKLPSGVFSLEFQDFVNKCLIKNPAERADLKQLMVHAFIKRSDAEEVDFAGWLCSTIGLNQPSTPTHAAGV
Chain of MAPK2(h) (P28482 whole entry): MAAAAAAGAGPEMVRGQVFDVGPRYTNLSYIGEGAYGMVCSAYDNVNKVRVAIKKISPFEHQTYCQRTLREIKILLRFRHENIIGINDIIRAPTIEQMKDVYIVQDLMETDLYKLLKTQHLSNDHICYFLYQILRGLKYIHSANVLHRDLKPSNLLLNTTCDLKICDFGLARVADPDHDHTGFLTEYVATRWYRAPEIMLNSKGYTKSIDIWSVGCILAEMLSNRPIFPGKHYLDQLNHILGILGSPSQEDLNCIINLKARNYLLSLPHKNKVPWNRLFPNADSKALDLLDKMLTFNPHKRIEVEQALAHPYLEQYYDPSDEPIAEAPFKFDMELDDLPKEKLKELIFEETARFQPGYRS
Chain of PKCε(h) (Q02156 whole entry): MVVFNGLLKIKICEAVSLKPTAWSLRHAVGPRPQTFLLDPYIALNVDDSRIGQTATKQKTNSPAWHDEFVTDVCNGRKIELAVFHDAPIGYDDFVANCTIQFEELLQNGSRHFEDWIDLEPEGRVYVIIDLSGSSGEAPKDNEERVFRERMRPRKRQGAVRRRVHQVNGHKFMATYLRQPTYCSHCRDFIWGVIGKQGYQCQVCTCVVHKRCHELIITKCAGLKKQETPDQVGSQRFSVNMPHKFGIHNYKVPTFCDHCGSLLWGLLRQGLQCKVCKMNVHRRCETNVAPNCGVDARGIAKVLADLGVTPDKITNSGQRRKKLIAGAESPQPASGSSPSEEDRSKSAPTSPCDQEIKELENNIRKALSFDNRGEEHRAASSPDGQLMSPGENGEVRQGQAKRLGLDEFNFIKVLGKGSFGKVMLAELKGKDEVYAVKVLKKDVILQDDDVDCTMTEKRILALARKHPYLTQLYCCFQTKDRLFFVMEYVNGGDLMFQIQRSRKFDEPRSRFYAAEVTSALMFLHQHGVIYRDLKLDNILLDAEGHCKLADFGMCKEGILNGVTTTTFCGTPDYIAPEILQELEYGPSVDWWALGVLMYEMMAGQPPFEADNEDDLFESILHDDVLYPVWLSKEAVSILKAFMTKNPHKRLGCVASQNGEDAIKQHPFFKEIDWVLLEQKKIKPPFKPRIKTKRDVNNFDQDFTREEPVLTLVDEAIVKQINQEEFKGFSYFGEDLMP
Chain of CaMKIIβ(h) (Q13554 whole entry): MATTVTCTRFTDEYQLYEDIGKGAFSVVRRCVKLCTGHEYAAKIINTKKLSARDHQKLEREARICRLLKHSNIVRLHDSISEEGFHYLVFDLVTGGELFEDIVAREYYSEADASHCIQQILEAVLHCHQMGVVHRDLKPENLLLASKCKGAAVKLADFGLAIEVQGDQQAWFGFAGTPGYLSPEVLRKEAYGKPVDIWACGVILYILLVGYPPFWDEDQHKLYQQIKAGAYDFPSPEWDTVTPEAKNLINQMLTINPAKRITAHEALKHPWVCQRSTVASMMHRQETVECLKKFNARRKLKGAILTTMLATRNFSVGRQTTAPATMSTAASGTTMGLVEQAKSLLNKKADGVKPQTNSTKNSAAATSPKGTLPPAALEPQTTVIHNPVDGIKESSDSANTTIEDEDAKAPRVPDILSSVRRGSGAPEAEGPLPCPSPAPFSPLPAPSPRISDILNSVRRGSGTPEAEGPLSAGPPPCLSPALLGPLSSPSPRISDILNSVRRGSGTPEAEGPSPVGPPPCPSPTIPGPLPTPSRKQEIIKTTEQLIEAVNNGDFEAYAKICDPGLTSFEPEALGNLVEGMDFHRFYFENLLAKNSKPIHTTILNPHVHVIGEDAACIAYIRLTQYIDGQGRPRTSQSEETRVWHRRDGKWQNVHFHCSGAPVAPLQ
Chain of PDGFRα(h) (P16234 24-1089): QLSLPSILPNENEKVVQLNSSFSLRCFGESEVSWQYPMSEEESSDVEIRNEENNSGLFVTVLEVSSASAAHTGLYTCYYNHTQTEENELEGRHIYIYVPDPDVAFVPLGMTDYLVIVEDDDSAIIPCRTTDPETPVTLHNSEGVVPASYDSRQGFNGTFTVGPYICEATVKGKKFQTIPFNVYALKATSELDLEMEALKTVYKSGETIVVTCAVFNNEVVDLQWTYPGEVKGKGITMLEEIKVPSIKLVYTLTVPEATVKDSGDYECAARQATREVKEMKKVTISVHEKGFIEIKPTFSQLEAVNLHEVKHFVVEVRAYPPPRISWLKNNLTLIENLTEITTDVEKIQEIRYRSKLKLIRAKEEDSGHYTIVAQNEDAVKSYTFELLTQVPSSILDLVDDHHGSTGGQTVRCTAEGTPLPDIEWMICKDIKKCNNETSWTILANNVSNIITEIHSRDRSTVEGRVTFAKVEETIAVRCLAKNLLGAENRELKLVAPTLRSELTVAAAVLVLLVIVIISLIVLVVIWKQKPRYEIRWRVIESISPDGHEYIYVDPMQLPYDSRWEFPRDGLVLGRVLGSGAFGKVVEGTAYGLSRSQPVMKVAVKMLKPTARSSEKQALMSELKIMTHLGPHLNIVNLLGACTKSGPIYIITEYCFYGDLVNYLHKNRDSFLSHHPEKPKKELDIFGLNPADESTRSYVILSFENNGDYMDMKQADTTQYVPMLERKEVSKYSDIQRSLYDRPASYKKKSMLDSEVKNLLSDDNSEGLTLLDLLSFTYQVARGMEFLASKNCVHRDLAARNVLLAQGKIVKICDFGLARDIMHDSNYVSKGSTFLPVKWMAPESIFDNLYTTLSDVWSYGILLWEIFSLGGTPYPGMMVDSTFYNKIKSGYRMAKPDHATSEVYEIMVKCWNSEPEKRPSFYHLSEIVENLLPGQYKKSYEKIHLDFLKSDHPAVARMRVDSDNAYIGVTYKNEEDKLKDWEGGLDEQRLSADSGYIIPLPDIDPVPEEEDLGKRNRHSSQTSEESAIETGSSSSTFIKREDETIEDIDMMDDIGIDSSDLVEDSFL
Chain of PKCμ(h) (Q15139 whole entry): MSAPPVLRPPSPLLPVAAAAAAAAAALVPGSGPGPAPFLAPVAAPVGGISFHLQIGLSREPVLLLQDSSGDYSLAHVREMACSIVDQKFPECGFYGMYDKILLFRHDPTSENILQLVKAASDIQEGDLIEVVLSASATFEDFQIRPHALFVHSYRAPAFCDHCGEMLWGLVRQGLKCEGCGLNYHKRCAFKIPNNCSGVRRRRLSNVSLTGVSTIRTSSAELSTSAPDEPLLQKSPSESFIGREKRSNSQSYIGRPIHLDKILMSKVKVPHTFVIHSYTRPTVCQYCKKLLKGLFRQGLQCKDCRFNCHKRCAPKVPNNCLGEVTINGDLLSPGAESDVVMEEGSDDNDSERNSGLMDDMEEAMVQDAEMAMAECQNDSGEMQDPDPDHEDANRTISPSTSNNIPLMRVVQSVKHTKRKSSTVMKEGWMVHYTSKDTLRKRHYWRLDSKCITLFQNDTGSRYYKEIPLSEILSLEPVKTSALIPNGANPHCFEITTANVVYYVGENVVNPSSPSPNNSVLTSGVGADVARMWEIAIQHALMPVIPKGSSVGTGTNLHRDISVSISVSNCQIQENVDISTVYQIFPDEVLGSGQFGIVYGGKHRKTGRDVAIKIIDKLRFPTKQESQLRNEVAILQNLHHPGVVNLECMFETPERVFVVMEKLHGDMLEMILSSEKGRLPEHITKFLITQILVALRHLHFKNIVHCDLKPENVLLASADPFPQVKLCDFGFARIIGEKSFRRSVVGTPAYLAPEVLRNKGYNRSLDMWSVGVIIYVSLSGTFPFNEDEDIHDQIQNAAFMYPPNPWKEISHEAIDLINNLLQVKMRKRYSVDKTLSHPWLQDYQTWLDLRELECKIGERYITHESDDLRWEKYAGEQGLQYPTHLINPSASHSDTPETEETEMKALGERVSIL

O=C(Nc1cc(Nc2ncccc2-c2ncnc3[nH]cnc23)ccc1F)c1cc(C(F)(F)F)cc(C(F)(F)F)c1 [SJ-C1044, N-(5-(3-(9H-purin-6-yl)pyridin-2-ylamino)-2-fluorophenyl)-3,5-bis(trifluoromethyl)benzamide]
inhibition at 10 µM (PKCμ(h)): -3%
inhibition at 10 µM (MEK1(h)): 1%
inhibition at 10 µM (PDGFRα(h)): -10%
inhibition at 10 µM (PKA(h)): -2%
inhibition at 10 µM (CaMKIIβ(h)): -5%
inhibition at 10 µM (MAPK2(h)): -7%
toxicity and weight loss [1]: no signs of toxicity or significant weight loss
inhibition at 10 µM (PKCε(h)): -5%
CD31 staining (angiogenesis) (MC38 tumor tissue): reduced
CD163+ or CD206+ staining (M2 macrophages) (MC38 tumor tissue): significant decrease
F4/80+ staining intensity (pan macrophage marker) (MC38 tumor tissue): notably reduced
infiltration of CD8+ T cells (MC38 tumor tissue): increase
population of FOXP3+ cells (MC38 tumor tissue): reducing
inhibition at 10 µM (CK2(h)): -11%
